From patent US9434687B2, “Detection of synthetic cannabinoids” (priority 2011, dated 2016)
Read-outs that look alike come from different tables or passages of the source.

Assays:
Format in all cases: binding, sheep
[1] = test system: IgG fraction of antiserum raised to Immunogen VII; settings: Antibody to Immunogen VII, cross-reactants at 100 ng/ml, 1000 ng/ml, standard JWH-015
Experimental: (§1) An aqueous solution of each immunogen was formulated with Freund's Complete Adjuvant (FCA) to form an emulsion consisting of 2 mg/ml*immunogen in 50% (v/v) FCA. Three sheep were immunised with this emulsion (1° immunisation), 0.25 ml being intramuscularly injected at each of four sites in the flank of each animal. Subsequent immunizations (boosts) contained 1 mg/ml*immunogen. All boosts were emulsified in 50% (v/v) Freund's Incomplete Adjuvant (FIA) and were administered in the same manner as the 1° immunisation, at monthly intervals. Blood sampling took place 7 to 14 days after each boost. *The general procedure for immunogen administration is outlined above, however, it was necessary to deviate from this protocol in some cases, due to reduced immunogen concentrations (Immunogens II, IV, VII and VIII) and/or amount available (Immunogen VIII). Any deviations from the protocol described are outlined in Table 5 below and highlighted in bold.
(§2) The wells of an enhanced binding 96 well polystyrene microtiter plate were coated with IgG fraction of antiserum raised to Immunogen I or II, diluted in 10 mM Tris, pH8.5 (125 μl/well). The appropriate antibody coating dilution was determined using standard ELISA checkerboard techniques. The plate was incubated overnight at 4° C., washed 4 times over 10 minutes with Tris buffered saline containing Tween 20 (TBST) and tapped dry. Standard solutions (JWH-018 for Immunogens I and II) were applied at 0, 0.625, 1.25, 2.5, 5, 10, 20 and 40 ng/ml and 50 μl of each was added to the appropriate wells. 75 μl of conjugate (appropriate hapten-HRP) diluted in Tris buffer (pH 7.2) containing EDTA, D-mannitol, sucrose, thimerosal and BSA, was added to each of the wells. The appropriate dilution of conjugate was also determined using standard ELISA checkerboard techniques. The plate was incubated at 25° C. for 1 hour. Excess unbound conjugate was removed by washing 6 times over a 10 minute period with TBST. 125 μl of tetramethylbenzidine (TMB) substrate solution was added to each well of the plate that was then incubated for 20 minutes in the dark at room temperature. The reaction was terminated by addition of 125 μl 0.2M H2SO4 to each well. The absorbance was then measured at 450 nm using a microtiter plate reader. The data are inputted to a computer program called ‘KC Junior’. It is a 4 parameter fit curve and allow the calculation of concentrations between the standard runs. This program is used to calculate the IC50s by dividing the 0 ng/ml OD value by 2 and obtaining the concentration value from the curve for this OD.
(§3) In a similar manner to that described above, the wells of a 96-well microtiter plate were coated with the IgG fraction of the antiserum raised to Immunogens IV, VII or VIII. Standard solutions (JWH-018 for Immunogens IV and VIII, JWH-015 for Immunogen VII) were prepared in TBST at 0, 1.25, 2.5, 5, 10, 20, 40 and 80 ng/ml and conjugate was employed as detection reagent.
(§4) The data set out in Tables 7-10 are generated using antibodies raised against the indicated Immunogens in a competitive binding assay with the indicated tracers, using the indicated standards
(§5) In order to determine the specificity of the competitive ELISAs, standard solutions of a range of structurally similar synthetic cannabinoids and their metabolites were prepared in TBST.
(§6) Using the calibration curves generated and employing a single level of cross reactants, these were used to determine the cross-reactivity of each immunoassay with these substances. These are the standards used for the IC50 and cross-reactivity data generation: […]

[2] = test system: IgG fraction of antiserum raised to Immunogen VIII; settings: Antibody to Immunogen VIII, cross-reactants at 100 ng/ml, 1000 ng/ml, standard JWH-018
Experimental: as §1, §2, §3, §4, §5, §6

[3] = test system: IgG fraction of antiserum raised to Immunogen IV; settings: Antibody to Immunogen IV, cross-reactants at 100 ng/ml, 1000 ng/ml, standard JWH-018
Experimental: as §1, §2, §3, §4, §5, §6

[4] = test system: IgG fraction of antiserum raised to Immunogen I; settings: Antibody to Immunogen I, cross-reactants at 100 ng/ml, 1000 ng/ml, standard JWH-018
Experimental: as §1, §2
In a similar manner to that described above, the wells of a 96-well microtiter plate were coated with the IgG fraction of the antiserum raised to Immunogens I or II. Standard solutions (JWH-018 for Immunogen I and II) were applied at 0, 0.625, 1.25, 2.5, 5, 10, 20 and 40 ng/ml and conjugate was employed as detection reagent.
as §4, §5, §6

| SMILES | % B/B0 [1] | % B/B0 [2] | % B/B0 [3] | % B/B0 [4] | % B/B0 ([1]; listed as JWH-164) | % B/B0 ([2]; listed as JWH-164) | % B/B0 ([3]; listed as JWH-164) | % B/B0 ([4]; listed as JWH-164) |
| --- | --- | --- | --- | --- | --- | --- | --- | --- |
| CCCCCCC(C)(C)c1ccc([C@@H]2C[C@H](O)CC[C@H]2CCCO)c(O)c1 (racemic) [(+−)-CP 55,940] | 100.25% | 100.25% | 94.60% | 100.61% |  |  |  |  |
| CCCCCn1c(O)c(C(=O)c2cccc3ccccc23)c2ccccc21 [2-OH JWH-018, JWH-018 2-hydroxyindole metabolite] | 95.08% | 101.36% | 100.14% | 95.37% |  |  |  |  |
| CCCCn1c(O)c(C(=O)c2cccc3ccccc23)c2ccccc21 [2-OH JWH-073, JWH-073 2-hydroxyindole metabolite] | 92.65% | 93.42% | 89.63% | 89.62% |  |  |  |  |
| COc1ccc(C(=O)c2c(C)n(CCN3CCOCC3)c3cc(I)ccc23)cc1 [AM-630, 6-Iodopravadoline] | 99.88% | 89.88% | 90.17% | 91.12% |  |  |  |  |
| O=C(c1ccc(I)cc1)c1cn(CCCCCF)c2ccccc12 [AM-694 4-iodo isomer] | 98.71% | 13.42% | 27.66% | 73.79% |  |  |  |  |
| CN1CCCCC1Cn1cc(C(=O)c2cc([N+](=O)[O-])ccc2I)c2ccccc21 (stereo not drawn) [AM-1241] | 94.96% | 102.46% | 91.38% | 85.61% |  |  |  |  |
| CCCCCCC(C)(C)C1=CC(=O)C(C2CCCC(O)C2)=CC1=O (stereo not drawn) [CP-47,497-para-quinone analogue] | 93.29% | 88.11% | 97.33% | 100.26% |  |  |  |  |
| CCCCCCCC(C)(C)c1ccc(C2CCCC(O)C2)c(O)c1 (stereo not drawn) [CP-49,497-C8-homologue] | 98.55% | 104.88% | 94.66% | 101.11% |  |  |  |  |
| CCCCCCC(C)(C)c1cc(O)c2c(c1)OC(C)(C)[C@@H]1CC=C(CO)C[C@@H]21 [HU-210] | 100.39% | 93.42% | 92.53% | 102.57% |  |  |  |  |
| CCCCCCC(C)(C)c1cc(O)c2c(c1)OC(C)(C)[C@H]1CC=C(CO)C[C@H]21 [HU-211, Dexanabinol] | 96.78% | 92.70% | 93.37% | 103.36% |  |  |  |  |
| CCCCCCC(C)(C)c1cc(OC)c([C@@H]2C=C(CO)[C@@H]3C[C@H]2C3(C)C)c(OC)c1 [HU-308] | 95.95% | 89.77% | 94.03% | 101.35% |  |  |  |  |
| CCCCCn1cc(C(=O)c2ccc3ccccc3c2)c2ccccc21 [JWH 018 2′-naphthyl isomer] | 94.98% | 14.94% | 28.13% | 75.90% |  |  |  |  |
| CCCCCn1cc(C(=O)C23CC4CC(CC(C4)C2)C3)c2ccccc21 [JWH 018 adamantyl analog] | 94.48% | 10.97% | 99.02% | 95.94% |  |  |  |  |
| CCCCCn1cc(C(=O)Cc2cccc(Cl)c2)c2ccccc21 [JWH 203 3-chloro isomer] | 97.42% | 10.34% | 55.09% | 95.59% |  |  |  |  |
| CCCCCn1cc(C(=O)Cc2ccccc2OC)c2cc(O)ccc21 [JWH 250 5-hydroxyindole metabolite] | 99.88% | 67.19% | 84.05% | 100.75% |  |  |  |  |
| COc1ccccc1CC(=O)c1cn(CCCCCC(=O)O)c2ccccc12 [JWH 250 N-(5-carboxypentyl) metabolite] | 97.60% | 89.30% | 89.88% | 86.21% |  |  |  |  |
| COc1ccccc1CC(=O)c1cn(CCCCCO)c2ccccc12 [JWH 250 N-(5-hydroxypentyl) metabolite] | 96.13% | 42.79% | 76.22% | 75.47% |  |  |  |  |
| CCCCCn1cc(C(=O)Cc2cccc(C)c2)c2ccccc21 [JWH 251 3-methylphenyl isomer] | 99.32% | 8.97% | 51.15% | 85.90% |  |  |  |  |
| CCCCCC(C)n1c(C)c(C(=O)c2cccc3ccccc23)c2ccccc21 (stereo not drawn) [JWH-011] | 57.43% | 97.49% | 99.19% | 62.13% |  |  |  |  |
| CCCCCn1ccc(C(=O)c2cccc3ccccc23)c1 [JWH-030] | 89.66% | 94.25% | 93.17% | 61.17% |  |  |  |  |
| CCCCn1cc(C(=O)c2ccc(C)c3ccccc23)c2ccccc21 [JWH-073 4-methylnaphthyl analogue] | 78.36% | 19.75% | 7.01% | 45.54% |  |  |  |  |
| CCCCCn1cc(C(=O)c2c(OC)ccc3ccccc23)c2ccccc21 [JWH-081 2-methoxynaphthyl isomer] | 83.43% | 58.20% | 27.67% | 69.58% |  |  |  |  |
| CCCCCn1cc(C(=O)c2cccc3ccc(OC)cc23)c2ccccc21 [JWH-081 7-methoxynaphthyl isomer] | 97.60% | 59.51% | 39.20% | 88.26% | 96.13% | 57.93% | 36.14% | 91.86% |
| COc1ccc(C(=O)c2cn(CCCCCO)c3ccccc23)c2ccccc12 [JWH-081 N-(5-hydroxypentyl) metabolite] | 89.31% | 47.16% | 26.31% | 61.86% |  |  |  |  |
| CCCCCn1c(C)c(C(=O)c2ccc(OC)c3ccccc23)c2ccccc21 [JWH-098] | 82.85% | 59.80% | 44.03% | 77.58% |  |  |  |  |
| CCCC(C)(C)c1ccc2c(c1)OC(C)(C)[C@@H]1CC=C(C)C[C@@H]21 [JWH-133] | 101.84% | 100.00% | 98.18% | 100.56% |  |  |  |  |
| CCCCCn1cc(C(=O)c2ccc(CCC)c3ccccc23)c2ccccc21 [JWH-182] | 98.40% | 30.65% | 12.83% | 107.08% |  |  |  |  |
| O=C(c1ccc2ccccc2c1)c1cn(CCN2CCOCC2)c2ccccc12 [JWH-200 2′-naphthyl isomer] | 94.65% | 96.12% | 92.29% | 28.57% |  |  |  |  |
| CCCCCn1cc(C(=O)Cc2ccc(OC)cc2)c2ccccc21 [JWH-201] | 100.25% | 8.26% | 59.03% | 77.14% |  |  |  |  |
